Experimental data reported in publication PMC12959148, “Exploring T. cruzi IMPDH as a promising target through Chagas Box screening and AVN-944 inhibition” (Antimicrobial Agents and Chemotherapy, 2026).
Several values for one entry are separate records, joined by “and”; a condition that tells them apart may be missing. Equal values may be shown once. Entries after “also recorded” stand apart in the source; their conditions may differ. Read-outs that look alike come from different tables or passages of the source.

Tests used:
[1] = target: T. cruzi IMPDH (Trypanosoma cruzi, UniProt Q4CUG6); test: biochemical
T. cruzi IMPDH, sequence (Q4CUG6 entry or part of it): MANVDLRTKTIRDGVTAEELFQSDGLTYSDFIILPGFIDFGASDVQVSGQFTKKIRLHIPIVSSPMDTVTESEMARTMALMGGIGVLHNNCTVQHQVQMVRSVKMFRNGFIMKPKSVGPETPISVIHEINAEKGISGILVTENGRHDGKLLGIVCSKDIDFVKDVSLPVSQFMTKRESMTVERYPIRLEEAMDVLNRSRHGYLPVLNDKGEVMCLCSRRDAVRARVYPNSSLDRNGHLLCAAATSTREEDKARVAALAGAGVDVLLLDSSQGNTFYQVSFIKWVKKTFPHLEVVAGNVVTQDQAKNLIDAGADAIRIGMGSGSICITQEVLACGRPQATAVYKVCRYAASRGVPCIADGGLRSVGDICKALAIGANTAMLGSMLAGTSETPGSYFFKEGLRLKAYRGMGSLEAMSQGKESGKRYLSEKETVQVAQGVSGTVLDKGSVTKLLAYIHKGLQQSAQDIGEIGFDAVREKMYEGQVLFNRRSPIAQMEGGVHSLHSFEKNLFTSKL
Experimental: (§1) Compounds were assayed at a single concentration of 10 μM. They were provided by GSK (GlaxoSmithKline) in a 384-well ready-to-use assay microplate containing 25 nL of each sample at 10 mM (100% DMSO). […] Velocities at steady state were calculated in the plate reader (CLARIOstar, BMG LabTech) as the maximum slope. […] After 15 min, resorufin fluorescence (Ex = 570 nm; Em = 590 nm) was measured in a plate reader (CLARIOstar, BMG LabTech). Data were normalized and plotted using GraphPad Prism 9.5.0.
The above-mentioned diaphorase-coupled assay was used. […] TcIMPDH activity was normalized, and the IC50 was calculated using GraphPad Prism 9.5.0.

[2] = tested on: T. cruzi amastigotes in H9c2 cells; test: Image-based infection assay, intracellular amastigotes in H9c2 host cells; assay type: cell-based; settings: Trypanosoma cruzi, read-out: EC50 against T. cruzi amastigotes in H9c2 cells
Experimental: To determine EC50 to kill intracellular amastigotes in H9c2 host cells, we used an image-based assay previously described in Alonso-Padilla et al. ([56]). Briefly, T. cruzi trypomastigotes (from LLC-MK2 supernatant) were used to infect H9c2 rat cardiomyocytes overnight. After washing, cells were incubated for 48 h in fresh DMEM, then seeded (1.5 × 10^3 cells/well) into 384-well plates with 50 µL assay volume (0.4% DMSO) containing 0.2 µL of compounds. After 72 h, cells were washed, fixed with 4% paraformaldehyde, and stained with Hoechst 33,342 (4 µg/mL). Images (five per well) were acquired using an Operetta microscope (20× objective) and analyzed with Columbus software. Data on cell count and infection ratio were processed in GraphPad Prism 9.5.0.

[3] = target: human IMPDH isoenzymes; settings: cited from earlier work
[4] = tested on: T. cruzi; design: method as in PMID 12070425; settings: cited from earlier work
[5] = tested on: recombinant TcIMPDH; test: TcIMPDH Michaelis-Menten kinetics, NADH fluorescence direct assay; assay type: biochemical, Trypanosoma cruzi; settings: 25°C, pH 7, other substrate at 1 mM, 1 μM enzyme
Experimental: Em = 485 nm) at 25°C, in black 384-wells microplates. Fluorescence was recorded every 30 s over 10 min using a CLARIOstar plate reader (BMG LabTech) and steady-state velocities were calculated from the maximum slope of the fluorescence curve. All reactions were performed in triplicate, under optimized buffer conditions: 50 mM tri-sodium citrate (pH 7), 100 mM KCl, and 1 mM DTT. For both substrates, 1 μM of purified recombinant […] was used.

[6] = tested on: human IMPDHs; settings: read-out: Km of human IMPDHs for substrate; cited from earlier work
[7] = tested on: L. donovani IMPDH; settings: read-out: Km of L. donovani IMPDH for substrate; cited from earlier work
[8] = tested on: T. brucei IMPDH; design: method as in PMID 23369253; settings: read-out: Km of T. brucei IMPDH for substrate; cited from earlier work
[9] = target: TcIMPDH (Trypanosoma cruzi, UniProt Q4CUG6); test: Chagas Box single-concentration screening for TcIMPDH inhibitors; assay type: biochemical
TcIMPDH, sequence (Q4CUG6 entry or part of it): as above
Experimental: as §1

[10] = tested on: CYP51; design: method as in PMID 25740547; settings: cited from earlier work
[11] = tested on: T. cruzi amastigotes; design: method as in PMID 25740547; settings: calculated from reported pEC50 value; read-out: EC50 anti-amastigote activity, previously reported; cited from earlier work
[12] = H9c2, 72 h, image-based, at least two biological replicates
[13] = read-out: IC50 against T. cruzi IMPDH

## COc1cc(NC(=O)Nc2cccc(CNC(=O)O[C@@H]3CCOC3)c2)ccc1-c1cnco1 [(R)-Merimepodib]
[1]
  IC50: 370 nM
[2]; [12]
  EC50: 3000 nM

## COc1cc(NC(=O)Nc2cccc(CNC(=O)O[C@H]3CCOC3)c2)ccc1-c1cnco1 [(S)-Merimepodib]
[1]
  IC50: 210 nM
[2]; [12]
  EC50: 4800 nM

## CC[C@H](CC#N)OC(=O)N[C@@H](C)c1cccc(NC(=O)Nc2ccc(-c3cnco3)c(OC)c2)c1 [AVN-944]
[1]
  IC50: 200 nM
  Ki: ~81 nM
[2]; H9c2, 72 h
  EC50: 400 nM
[3]
  Ki: 6 to 10 nM

## O=C(Cn1ccnc1[N+](=O)[O-])NCc1ccccc1 [Benznidazole]
[2]; [12]
  EC50: 3000 nM

## NC(=O)c1ncn([C@@H]2O[C@H](CO)[C@@H](O)[C@H]2O)c1O [Mizoribine]
[1]
  inhibition of TcIMPDH activity: did not show measurable inhibition; also recorded: inactive

## COc1c(C)c2c(c(O)c1C/C=C(\C)CCC(=O)OCCN1CCOCC1)C(=O)OC2 [Mycophenolate mofetil]
[1]; [13]
  IC50: 4400 nM
[4]
  parasitemia in Chagas murine model: reduction of parasitemia
  survival / parasitological cure in Chagas murine model: fails to improve survival outcomes or achieve parasitological cure
[2]; [12]
  EC50: 1500 nM

## NC(=O)c1ccc[n+]([C@@H]2O[C@H](COP(=O)([O-])OP(=O)(O)OC[C@H]3O[C@@H](n4cnc5c(N)ncnc54)[C@H](O)[C@@H]3O)[C@@H](O)[C@H]2O)c1 [NAD^+, nicotinamide adenine dinucleotide oxidized form]
[5]
  Km: 292 µM
[6]
  Km: 6 to 70 µM
[7]
  Km: 390 µM
[8]
  Km: 1300 µM

## COc1cc(NC(=O)Nc2cccc(CNC(=O)OC3CCCCC3)c2)ccc1-c1cnco1 [TCMDC-143376]
[9]; 10 μM compound, two independent runs, read-out: inhibition of TcIMPDH in primary screening
  inhibition at 10 µM: 55 to 60%
[9]; estimated from inhibition at the fixed concentration 10 μM, read-out: IC50 suggested by screening
  IC50: < 10000 nM
[10]
  IC50: ~25000 nM
[11]
  EC50: ~15900 nM and 15900 nM
[1]; [13]
  IC50: 4000 nM
